Results reported in patent publication US20060185030A1, “Cytokinin response regulators and uses thereof” (priority 2001, published 2006).

Legend:
CKI1-GFP = experiment: GFP fusion expression and localization in transfected protoplasts (confocal microscopy); type: cell-based, Arabidopsis; conditions: tunicamycin 1 μg/ml, 12 hours
Experimental: To gain insight into where the cytokinin signalling is perceived, the sub-cellular localization of CKI1 was examined using the CKI1-GFP fusion. We first confirmed that CKI1-GFP acted similarly as CKI1-HA in the protoplast assay based on ARR6-LUC activation (FIG. 1D). […] Specifically, protoplasts were transfected with CKI1-GFP or various GFP marker plasmid DNA. Tunicamycin (1 μg/ml) treatment was for 12 hours. The transfected protoplasts were analyzed with a confocal microscope. The subcellular GFP markers are “CAT-GFP” for the cytosol, “ER-GFP” for the endoplasmic reticulum, and “N-GFP” (HSP-GFP) for the nucleus. Since the N-terminus of CKI1 is replete with putative glycosylation sites, the effect of a glycosylation inhibitor, tunicamycin, in CKI1-GFP expression, localization or function was examined.

ARR6 promoter = experiment: Arabidopsis mesophyll protoplast transient expression assay, ARR6-LUC reporter; type: cell-based; conditions: for activity of ARR6-LUC (hormone specificity): 100 nM t-zeatin, 1 μM IAA or 100 μM ABA, 3 hours of incubation; for induction of the reporter gene ARR6-LUC by cytokinin analogues: 100 nM, FIG. 1C; for activation of ARR6-LUC by over-expressed effector: absence of exogenous cytokinin
Experimental: To elucidate the regulatory circuitry in cytokinin signal transduction, a leaf cell assay based on cytokinin inducible transcription in Arabidopsis mesophyll protoplasts was developed. The 2.4 kb promoter of an Arabidopsis cytokinin primary response gene (SEQ ID NO.: 1), encoding the response regulator 6 (ARR6), was fused to the firefly luciferase (LUC) reporter. In FIG. 1A, transfected protoplasts were incubated with or without 100 nM t-zeatin, 1 μM indole-3-acetic acid (IAA), or 100 μM ABA. After 3 hours of incubation, LUC and GUS activities were determined.
(§1) Arabidopsis Bensheim (BE) protoplasts were isolated and transfected as described with some modifications (Kovtun et al., Proc. Natl. Acad. Sci. USA 97: 2940-5 2000). […] For instance, in the experiments shown in FIG. 1A, protoplasts (4×10^4) were transfected with 2 μg of UBQ10-GUS (internal control) and 20 μg of ARR6-LUC, GH3-LUC, or RD29ALUC plasmid DNA. Transfected protoplasts were incubated at 1×10^4 per mil with/without 1-100 nM of t-zeatin for 3-6 hours under the light at 23° C. The UBQ10-GUS construct was used as an internal control to normalize the variations of each transfection in cell numbers, transformation efficiency and cell viability. […] GFP fluorescence was observed by either Nikon TE200 fluorescent microscopy or Leica TCSNT confocal microscopy.

GH3 promoter = experiment: Arabidopsis mesophyll protoplast transient expression assay, GH3-LUC reporter; type: cell-based; conditions: 1 μM IAA, 3 hours
Arabidopsis seedlings = experiment: Seedling cytokinin response assay; type: in vivo; conditions: medium with 0.15 mg/L IAA alone or with 0.15 mg/L IAA and 5 mg/L 2IP, 14 days
Description: In tissue culture, induction of cell proliferation and subsequent shoot formation require cytokinin. To determine whether the same cytokinin signalling pathway is responsible for transcription regulation, cell proliferation, shoot meristem initiation, and leaf formation, we developed a seedling cytokinin response assay. In FIGS. 4A and 4B, Arabidopsis seedlings were transformed with Agrobacteria carrying GFP, CKI1, CKI1 (H405Q), ARR2, and ARR6 constructs in the mini-binary vector pCB302 (Xiang et al., Plant Mol. Biol. 40: 711-7, 1999). Seedlings transformed with the Agrobacteria carrying the binary vector pCB301 […] a Bar selection marker were used as a transformation control (vector). The transformed seedlings were selected with glufosinate ammonium (10 μg/ml) and maintained on medium with auxin (IAA) only (FIG. 4A, +IAA, −2IP) or with auxin and cytokinin (FIG. 4B, +IAA, +2IP) for 14 days. The transformed tissues were mostly derived from the shoot apical meristem. […] Both CKI1 and ARR2 promoted extensive cell proliferation and shoot formation even without exogenous cytokinin. The experiments were repeated three times with similar results. […] The results of this cytokinin seedling assay are consistent with those from protoplast transient expression analyses based on transcription. […]

AHP1-GFP = conditions: 100 nM t-zeatin, 30 minutes
Experimental: (§2) To gain further in vivo support for the involvement of AHPs in cytokinin signalling, the action of AHP1-GFP in transfected protoplast in the absence or presence of cytokinin was followed using fluorescence microscopy. Specifically, protoplasts were transfected with AHP1-GFP, AHP2-GFP, or AHP5-GFP and incubated for 3 hours to allow sufficient expression.
as §1

AHP5-GFP = conditions: 100 nM t-zeatin, 30 minutes
Experimental: as §2, §1

RD29A promoter = experiment: Arabidopsis mesophyll protoplast transient expression assay, RD29A-LUC reporter; type: cell-based; conditions: 100 μM ABA, 3 hours

With tunicamycin the “expression of CKI1-GFP” value (CKI1-GFP) was “completely abolished” and the “expression of other GFP constructs” value (CKI1-GFP; CAT-GFP, ER-GFP, N-GFP markers) was “did not affect”.

In the case of `O=C(O)Cc1c[nH]c2ccccc12` [IAA, indole-3-acetic acid], the “activity of ARR6-LUC (hormone specificity)” value (“activity of ARR6-LUC” for short) (ARR6 promoter) is reported as “not by other plant hormones”, the GH3 promoter activation (GH3 promoter) is reported as “only activated” and the “callus / shoot formation of GFP control transformed seedlings” value (Arabidopsis seedlings) is reported as “green callus formation”.

`C/C(=C\CNc1ncnc2nc[nH]c12)CO` [t-zeatin, trans-zeatin] was tested, and the “activity of ARR6-LUC” value (ARR6 promoter) was “specifically induced”, the “induction of the reporter gene ARR6-LUC by cytokinin analogues” value (ARR6 promoter) was “induced” and the “AHP1-GFP localization after cytokinin treatment” value (AHP1-GFP) was “translocated into the nucleus”. For the same molecule, the AHP5-GFP cytokinin-dependent translocation (AHP5-GFP) was “not”.

For `CC1=CC(=O)CC(C)(C)[C@@]1(O)/C=C/C(C)=C\C(=O)O` [ABA, abscisic acid], the “activity of ARR6-LUC” value (ARR6 promoter) was “not by other plant hormones” and the RD29A promoter induction (RD29A promoter) was “solely induced”.

For `c1ccc(CNc2ncnc3nc[nH]c23)cc1` [BA, benzyladenine], the “induction of the reporter gene ARR6-LUC by cytokinin analogues” value (ARR6 promoter) was “induced”.

B1: ARR1: Arabidopsis B-type response regulator (SEQ ID NO.: 2), over-expressed from effector plasmid (protein, listed as Arabidopsis thaliana)
chain: MALSLLRKNKHGFDIVISDVHMPDMDGFKLLEHVGLEMDLPVIMMSADDSKSVVLKGVTHGAVDYLIKPVRMEALKNIWQHVVRKRRSEWSVPEHSGSIEETGERQQQQHRGGGGGAAVSGGEDAVDDNSSSVNEGNNWRSSSRKRKDEEGEEQGDDKDEDASNLKKPRVVWSVELHQQFVAAVNQLGVEKAVPKKILELMNVPGLTRENVASHLQKYRIYLRRLGGVSQHQGNLNNSFMTGQDASFGPLSTLNGFDLQALAVTGQLPAQSLAQLQAAGLGRPAMVSKSGLPVSSIVDERSIFSFDNTKTRFGEGLGHHGQQPQQQPQMNLLHGVPTGLQQQLPMGNRMSIQQQIAAVRAGNSVQNNGMLMPLAGQQSLPRGPPPMLTSSQSSIRQPMLSNRISERSGFSGRNNIPESSRVLPTSYTNLTTQHSSSSMPYNNFQPELPVNSFPLASAPGISVPVRKATSYQEEVNSSEAGFTTPSYDMFTTRQNDWDLRNIGIAFDSHQDSESAAFSASEAYSSSSMSRHNTTVAATEHGRNHQQPPSGMVQHHQVYADGNGGSVRVKSERVATDTATMAFHEQYSNQEDLMSALLKQEGIAPVDGEFDFDAYSIDNIPV
B1 was tested, and the “activation of ARR6-LUC by over-expressed effector” value (ARR6 promoter) was “about 40 fold”.

B2: ARR2: Arabidopsis B-type response regulator (SEQ ID NO.: 3), over-expressed from effector plasmid (protein, listed as Arabidopsis thaliana)
chain: MVNPGHGRGPDSGTAAGGSNSDPFPANLRVLVVDDDPTCLMILERMLMTCLYREQRAHCLCFGRTKNGFDIVISDVHMPDMDGFKLLEHVGLEMDLPVINLNVLKPLVIVMSADDSKSVVLKGVTHGAVDYLIKPVRIEALKNIWQHVVRKKRNEWNVSEHSGGSIEDTGGDRDRQQQHREDADNNSSSVNEGNGRSSRKRKEEEVDDQGDDKEDSSSLKKPRVVWSVELHQQFVAAVNQLGVDSELKTCLLMHLCVSIGNIVEFQKYRIYLRRLGGVSQHQGNMNHSFMTGQDQSFGPLSSLNGFDLQSLAVTGQLPPQSLAQLQAAGLGRPTLAKPGMSVSPLVDQRSIFNFENPKIRFGDGHGQTMNNGNLLHGVPTGSHMRLRPGQNVQSSGMMLPVADQLPRGGPSMLPSLGQQPILSSSVSRRSDLTGALAVRNSIPETNSRVLPTTHSVFNNFPADLPRSSFPLASAPGISVPVSVSYQEEVNSSDAKGGSSAATAGFGNPSYDIFNDFPQHQQHNKNISNKLNDWDLRNMGLVFSSNQDAATATATAAFSTSEAYSSSSTQRKRRETDATVVGEHGQNLQSPSRNLYHLNHVFMDGGSVRVKSERVAETVTCPPANTLFHEQYNQEDLMSAFLKQV
With B2 the “activation of ARR6-LUC by over-expressed effector” value (ARR6 promoter) was roughly 400 fold and the “activation of ARR6-LUC by over-expressed effector with cytokinin treatment” value (ARR6 promoter; with cytokinin (100 nM t-zeatin, 3 hours)) was “over 1000 fold”.

B3: ARR10: Arabidopsis B-type response regulator (SEQ ID NO.: 9), over-expressed from effector plasmid (protein, listed as Arabidopsis thaliana)
chain: MTMEQEIEVLDQFPVGMRVLAVDDDQTCLRILQTLLQRCQYHVTTTNQAQTALELLRENKNKFDLVISDVDMPDMDGFKLLELVGLEMDLPVIMLSAHSDPKYVMKGVKHGACDYLLKPVRIEELKNIWQHVVRKSKLKKNKSNVSNGSGNCDKANRKRKEQYEEEEEEERGNDNDDPTAQKKPRVLWTHELHNKFLAAVDHLGVERAVPKKILDLMNVDKLTRENVASHLQKFRVALKKVSDDAIQQANRAAIDSHFMQMNSQKGLGGFYHHHRGIPVGSGQFHGGTTMMRHYSSNRNLGRLNSLGAGMFQPVSSSFPRNHNDGGNILQGLPLEELQINNNINRAFPSFTSQQNSPMVAPSNLLLLEGNPQSSSLPSNPGFSPHFEISKRLEHWSNAALSTNIPQSDVHSKPDTLEWNAFCDSASPLVNPNLDTNPASLCRNTGFGSTNAAQTDFFYPLQMNQQPANNSGPVTEAQLFRSSNPNEGLLMGQQKLQSGLMASDAGSLDDIVNSLMTQEQSQSDFSEGDWDLDGLAHSEHAYEKLHFPFSLSA
For B3, the “activation of ARR6-LUC by over-expressed effector” value (ARR6 promoter) was “about 10 fold” and the “further enhancement by cytokinin of effector's effect on ARR6-LUC activity” value (ARR6 promoter; with cytokinin, relative to effector alone) was 10-20 fold.
